Test results: patent US20070212360A1, “Modulation of mitochondrial oxygen consumption for therapeutic purposes” (priority 2006, published 2007)

Tests used:
[1] = test system: primary human or immortalized mouse fibroblasts; assay: Oxygen consumption of fibroblast suspensions (Clark electrode); format: cell-based
Protocol: FIG. 1. Hypoxia inhibits mitochondrial oxygen consumption. A: Oxygen concentration curves generated using a Clark electrode for fibroblast suspensions from cultures exposed to normoxia or hypoxia for 24 h. Arrows indicate addition of the mitochondrial uncoupler CCCP and cytochrome poison cyanide. The slope of the curve is a measure of the rate of oxygen consumption. B: Average oxygen consumption rates in normal human fibroblasts and immortalized murine fibroblasts cultured in normoxia or 0.5% O2 for 24 h. C: Fraction of total oxygen consumption due to mitochondrial versus non-mitochondrial consumption in wild-type murine fibroblasts. Mitochondrial consumption was determined using 1 ug/ml of the cell permeable complex 3 inhibitor Antimycin A. D: Change in oxygen consumption in RKO cells after exposure to the indicated time in 0.5% O2, and time to recovery in normoxia following 24 h hypoxia. For all graphs, the error bars represent the standard error of the mean.
Oxygen consumption measurements. […] Oxygen consumption was measured in a 0.5 ml volume using an Oxytherm electrode unit (Hansatech, Norfolk, UK). […]
HIF-1 downregulates mitochondrial oxygen consumption. Having identified several putative HIF-1 responsive gene products that had the potential to regulate mitochondrial function, we then directly measured mitochondrial oxygen consumption in cells exposed to long term hypoxia. […]

[2] = test system: HIFwt and HIFko MEFs; assay: Tirapazamine toxicity by colony formation (clonogenic viability); format: cell-based, mouse
Protocol: FIG. 6. HIF dependent decrease in oxygen consumption raises intracellular oxygen concentration, protects when oxygen is limiting, and decreases sensitivity to tirapazamine in vitro. A: Pimonidazole was used to determine the intracellular oxygen concentration of cells in culture. HIFwt and HIFko MEFs were grown at high density and exposed to 2% O2 or anoxia for 24 h in glass dishes. For the last 4 hours of treatment, cells were exposed to 60 μg/ml pimonidazole. Pimonidazole binding was quantitated by flow cytometry after binding of an FITC conjugated anti-pimo mAb. Results are representative of two independent experiments. B: HIF1α reduces oxygen consumption and protects cells when total oxygen is limited. HIFwt and HIFko cells were plated at high density and sealed in aluminum jigs at <0.02% oxygen. At the indicated times, cells were harvested and dead cells were quantitated by trypan blue exclusion. […] C. PDK1 is responsible for HIF-1's adaptive response when oxygen is limiting. A similar jig experiment was performed to measure survival in the parental RKO, the RKO ShRNAHIF1α and the RKOShPDK1 cells. Cell death by trypan blue uptake was measured 48 h after the jigs were sealed. D: HIF status alters sensitivity to TPZ in vitro. HIFwt and HIFko MEFs were grown at high density in glass dishes and exposed to 21%, 2%, and <0.01% O2 conditions for 18 hours in the presence of varying concentrations of Tirapazamine. After exposure, cells were harvested, and replated under normoxia to determine clonogenic viability. Survival is calculated relative to the plating efficiency of cells exposed to 0 μM TPZ for each oxygen concentration. Error bars represent the standard error of the mean. E: Cell density alters sensitivity to TPZ. HIFwt and HIFko MEFs were grown at varying cell densities in glass dishes and exposed to 2% O2 in the presence of 10 μM TPZ for 24 h. After the exposure, survival was determined as described in […].
Cell lines and cell culture. Primary human fibroblasts have been described previously (Denko et al., 2003; Kim et al., 1997) and RKO human colon carcinoma cells were obtained from the American Type Culture Collection (ATCC, Manassas, Va.). RCC4, RCC4/VHL, and RCC4/Y98H human renal cell carcinoma cell lines have also been described previously (Chan et al., 2005). Wildtype and HIF-1α knockout mouse embryo fibroblasts (MEFs) were a gift from Dr. R Johnson (University of California, San Diego). All cells were grown in vitro as monolayers in Dulbeco's Modified Eagle's Media (DMEM) supplemented with 10% fetal bovine serum (FBS). For treatment with moderate hypoxia, cell culture dishes were placed into an Invivo2 humidified hypoxia workstation (Ruskinn Technologies, Bridgend, UK) at the indicated oxygen concentrations. Severe hypoxia was generated in an anaerobic workstation with a palladium catalyst (Sheldon Co., Cornelius, Oreg.). Tirapazamine toxicity was measured in cells plated overnight at the indicated density in glass dishes. The next day, fresh media was added containing the indicated concentration of TPZ, and the cells placed in the indicated oxygen environment. 24 hours later, the cells were trypsinized, counted, and plated for colony formation in normoxia.
Because HIF-1 can help cells adapt to hypoxia and maintain some intracellular oxygen level, it may also protect tumor cells from killing by the hypoxic cytotoxin tirapazamine (TPZ). TPZ toxicity is very oxygen dependent, especially at oxygen levels between 1-4% (Koch, 1993). We therefore tested the relative sensitivity of the HIFwt and HIFko cells to TPZ killing in high density cultures (FIG. 6d). We exposed the cells to the indicated concentrations of drug and oxygen concentrations overnight. The cells were then harvested and replated to determine reproductive viability by colony formation. […] The lower oxygen level is significant enough to dramatically sensitize these cells to killing by TPZ.

[3] = test system: experimental tumors; details: literature reference (28); cited from earlier work
[4] = test system: RKO and RKOShHIF1α 5×HRE-luciferase reporter tumors; assay: Bioluminescent imaging of HRE-luciferase reporter tumors in vivo; parameters: species or system mouse; details: twelve hours after single dose 60 mg/kg tirapazamine ip
Protocol: FIG. 8. Increasing oxygen consumption by inhibition of PDK activity increases tumor hypoxia. (a) Luciferase activity of wildtype and HIF1α knockdown RKO cells stably transfected with a HIF1 responsive luciferase reporter gene. Cells were exposed to 0.5% O2 for 24 hours in triplicate. Luminescence is normalized to normoxic HIF wildtype cells. (b) Luciferase activity of wildtype RKO HIF1 reporter cells exposed to 0.5% O2 for 24 hours in the presence of increasing concentrations of echinomycin. Data are normalized to the increase in signal observed in the absence of drug. (c) Bioluminescent imaging in vivo. Images show a representative animal bearing an RKO reporter tumor on the left flank and an RKOShHIF1α reporter tumor on the right flank as a function of time after ip injection of 50 mg/kg DCA. […] (d) Quantification of in vivo bioluminescence. […] The data represent the mean of three independent experiments, each comprising 5 RKO and 5 RKOShHIF1α reporter tumors.
FIG. 14. Luciferase activity of hypoxia reporter tumors in response to tirapazamine. Mice bearing 500 mm^3 RKO HRE-luciferase tumors were imaged using an IVIS100 bioluminescent imaging system, and the signal from each tumor was quantified. […]
Bioluminescent imaging. […] After 10 min, bioluminescence was measured in a Xenogen IVIS100 imaging system (Xenogen). Data was quantified by measuring total photons/s from uniform regions of interest. […]

Structure (SMILES)	effect on total cellular oxygen consumption ([1]; fibroblast suspensions from normoxic and hypoxic (24 h) cultures, mitochondrial uncoupler)	effect on oxygen consumption in hypoxia treated cells ([1]; hypoxia treated cells)	cell-density effect on TPZ toxicity in HIFko cells ([2]; 2% O2, 10 μM TPZ, 24 h, HIFko)	cell-density effect on TPZ toxicity in HIFwt cells ([2]; 2% O2, 10 μM TPZ, 24 h, HIFwt, highest density cultures)	effect of increased cell density on TPZ toxicity ([2]; 2% O2, 10 μM TPZ, 24 h, varying cell densities)	sensitivity of HIF-null cells to the drug relative to wild type cells ([2]; 2% oxygen, high density cultures, overnight)	sensitivity to TPZ killing (colony formation), HIFwt vs HIFko ([2]; 21% oxygen, high density cultures, overnight)	sensitivity to TPZ killing (colony formation), HIFwt vs HIFko ([2]; anoxic conditions, high density cultures, overnight)	reduction of the hypoxic fraction of experimental tumors [3]	reduction of luciferase signal of HRE-reporter tumors [4] [%]
N#CC(C#N)=NNc1cccc(Cl)c1 [CCCP, carbonyl cyanide 3-chloro phenylhydrazone]	stimulated	increase oxygen consumption	–	–	–	–	–	–	–	–
Nc1n[n+]([O-])c2ccccc2[n+]1[O-] [tirapazamine]	–	–	much more pronounced	some increased toxicity	increased TPZ toxicity	significantly greater sensitivity	equally resistant	equally sensitive	greater than 10 fold	90
